# According to ChEMBL document CHEMBL3044691, “The stability and degradation of a new biological pesticide, pyoluteorin” (Pest Manag Sci, 2010):
# Tests used:
# Type in all cases: physicochemical
# [1] = Half life in water solution at 248.5 mg/l initial concentration under dark condition
# [2] = Half life in water solution at 626.5 mg/l initial concentration under dark condition
# [3] = Half life in phosphate buffer at pH 6.2 at room temperature under sunlight
# [4] = Half life in phosphate buffer at pH 6.6 at room temperature under sunlight
# [5] = Half life in phosphate buffer at pH 7.8 at room temperature under sunlight
# [6] = Half life in phosphate buffer at pH 6.2 under dark condition
# [7] = Half life in phosphate buffer at pH 7 at room temperature under sunlight
# [8] = Half life under dark condition at room temperature
# [9] = Half life in water solution at 54 degC under dark condition
# [10] = Half life under incandescent lamp light at room temperature
# [11] = Half life in water solution at 375 mg/l initial concentration under dark condition
# [12] = Half life in phosphate buffer at pH 7 under dark condition
# [13] = Half life in water solution at 121.5 mg/l initial concentration under dark condition
# [14] = Half life in phosphate buffer at pH 5.8 under dark condition
# [15] = Half life under fluorescent lamp light at room temperature
# [16] = Half life in phosphate buffer at pH 7.4 at room temperature under sunlight
# [17] = Half life in water solution at 28 degC under dark condition
# [18] = Half life in phosphate buffer at pH 7.4 under dark condition
# [19] = Half life in phosphate buffer at pH 6.6 under dark condition
# [20] = Half life in phosphate buffer at pH 5.8 at room temperature under sunlight
# [21] = Half life under high-pressure mercury lamp light at room temperature
# [22] = Half life in phosphate buffer at pH 7.8 under dark condition
# [23] = Half life in water solution at 70 degC under dark condition
# [24] = Half life under sunlight at room temperature
# [25] = Half life in water solution at 37 degC under dark condition
# [26] = Half life in water solution at 502.5 mg/l initial concentration under dark condition
compound,measurement,setting,value
O=C(c1cc(Cl)c(Cl)[nH]1)c1c(O)cccc1O [PYOLUTEORIN],half-life at 248.5 mg/l,[1],31.1 days
same,half-life at 626.5 mg/l,[2],51.7 days
same,half-life,[3],1.29 days
same,half-life,[4],0.92 days
same,half-life,[5],0.42 days
same,half-life,[6],42 days
same,half-life,[7],0.69 days
same,half-life,[8],24.9 days
same,half-life,[9],22 days
same,half-life,[10],23.5 days
same,half-life at 375 mg/l,[11],37.7 days
same,half-life,[12],54.1 days
same,half-life at 121.5 mg/l,[13],26.5 days
same,half-life,[14],34.8 days
same,half-life,[15],23.2 days
same,half-life,[16],0.58 days
same,half-life,[17],30 days
same,half-life,[18],32.8 days
same,half-life,[19],50.2 days
same,half-life,[20],1.77 days
same,half-life,[21],3.1 days
same,half-life,[22],23.9 days
same,half-life,[23],18.8 days
same,half-life,[24],3.5 days
same,half-life,[25],26.5 days
same,half-life at 502.5 mg/l,[26],44.4 days
